From US5445941A, “Method for screening anti-osteoporosis agents” (Eli Lilly and Company, priority 1993, dated 1995)
Entries after “also recorded” stand apart in the source; their conditions may differ. Where a name gives a salt, the structure may show the parent alone. Read-outs that look alike come from different tables or passages of the source.

What was measured:
TGFβ-3 promoter [1] = assay: Dose response of TGFβ-3 promoter (pB-301) CAT induction in MG63 cells with pRSVER; conditions: for CAT activity: 24 h, vehicle 0.85
Method: For each group of twelve cultures, the particular estrogen or antiestrogen compound was tested in replicate cultures at […], varying in tenfold increments from 10^-9 M to 10^-5 M, as well as one set of replicate cultures treated with vehicle only (for a total of twelve cultures per experimental treatment). Hormones were dissolved in ethanol and applied to the cultures in media as described above. The four estrogens and antiestrogens tested were:
a. 17β-estradiol (Sigma Chemical Corp., St. Louis, Mo.);

uterotropic activity = conditions: ovariectomized rats; cited from earlier work
TGFβ-3 promoter [2] = assay: Comparative induction of reporter gene from TGFβ-3 promoter (pB-301, pRSVER, MG63) by raloxifene and related compounds; format: cell-based, human; conditions: for reporter gene expression: 0 M 0.61; for induction of reporter gene expression (in words): MG63 cells
[3] = system: estrogen responsive elements; conditions: in vitro; cited from earlier work
[4] = cited from earlier work; for bone density (in words): breast cancer patients
TGFβ-1 promoter = assay: CAT reporter expression, TGFβ-1 promoter (phTG12), MG63 cells cotransfected with pRSVER
Method: (§1) Co-transfection experiments were performed in MG63 (human osteosarcoma) cells, using the ProFection Mammalian Transfection System (Promega). […] The cells were then refed with fresh 3:1 media containing 10% csFBS. Compounds to be evaluated for their ability to modulate reporter gene expression were added at the appropriate times and assayed as described below.
(§2) Cultures of MG63 cells were transiently co-transfected with pRSVER plasmid and either phTG12, pTGF-1, or pB2-499 using the ProFection system (Promega). For each transfected cell culture, DNA-containing calcium phosphate precipitates were added dropwise to each culture dish and mixed thoroughly in the media. The pH of the media was carefully maintained between pH 7.2 and pH 7.4. Transfected cell cultures were then incubated overnight in a 5% CO2 atmosphere at 37° C. For all cultures, the precipitate was removed after overnight incubation by aspirating the media from the culture dishes, followed by rinsing each dish twice with D-PBS. For each cotransfected cell line, the buffer was replaced with 10 ml fresh medium containing 10% csFBS and one of the following compositions:
(§3) a. 10 μl ethanol (hormone vehicle)=control;
(§4) b. 10 μl 17β-estradiol (Sigma) ("estradiol") at a concentration of 10^-4 M in ethanol;
(§5) d. 10 μl Tamoxifen (Sigma) at a concentration of 10^-4 M in ethanol.
(§6) After 24 h incubation with these hormonal preparations (or the vehicle control), cells were washed twice with D-PBS. The cells were then scraped from the culture dishes using a rubber policeman and 1 ml of D-PBS. Cells were collected by centrifugation at 8,000 rpm for 2 minutes in a tabletop centrifuge (MicroMax Model, IEC, Newark, N.Y.). The supernatant was removed and the cell pellets were resuspended in 150 μL of a 0.25M Tris-HCl solution (pH 7.8). Cells were lysed by three cycles of freezing in a dry ice/ethanol bath and thawing in a water bath at 37° C. water bath (for 3 minutes each cycle). Lysed cell preparations were centrifuged at 15,000 rpm for 5 minutes at 4° C. to remove cell debris. Supernatants containing the soluble cell lysate were transferred to a new set of tubes for assaying chloramphenicol acetyltransferase (CAT) activity.
Before performing CAT assays on such cell lysates, the protein content of each lysate was first determined using a commercially-available assay (BioRad Laboratories, Richmond, Calif.). An amount of each cell lysate containing 100 μg total protein was then mixed with CAT assay buffer (0.4M Tris-HCl (pH 7.8)/ 0.5 mM acetyl-CoA (Boehringer Mannheim)/ 0.1 μCi D-threo-(dichloroacetyl-1,2-[^14 C]-chloramphenicol) for 15 hours. After this incubation, reactions were stopped by vigorously extracting the reaction mixture with 900 μL ethyl acetate. The organic and aqueous phases were separated by brief centrifugation at 14,000 rpm for 1 minute, and approximately 800 μL of the organic phase was transferred to a new set of tubes. Ethyl acetate was evaporated to concentrate the CAT-catalyzed reaction products.
Acetylated and unacetylated chloramphenicol species were resolved by thin layer chromatography using a mixture of 95:5 (v/v) chloroform:methanol as the ascending buffer.

TGFβ-3 promoter [5] = assay: CAT reporter expression, TGFβ-3 promoter (pB-499), MG63 cells cotransfected with pRSVER
Method: as §1, §2, §3, §4, §5, §6
(§7) Before performing CAT assays on such cell lysates, the protein content of each lysate was first determined using a commercially-available assay (BioRad Laboratories, Richmond, Calif.). […]

TGFβ-2 mRNA = conditions: T-47D and MDA-MB-231; cited from earlier work
TGFβ-2 promoter = assay: CAT reporter expression, TGFβ-2 promoter (pTGF-1), MG63 cells cotransfected with pRSVER
Method: as §1, §2, §3, §4, §5, §6, §7

TGFβ-1 = conditions: three months of treatment; cited from earlier work
[6] = system: TGFβ secretion by human fetal fibroblasts; conditions: absence of estrogen receptor; cited from earlier work
[7] = system: osteoblasts and osteoclasts; conditions: cited from earlier work
[8] = system: mesenchymal cells and epithelial cells; fibroblasts, macrophages and smooth muscle cells; conditions: cited from earlier work
[9] = system: human endometrial cancer cell line (HEC-50); conditions: cited from earlier work
[10] = system: human endometrial cancer cell line (Ishikawa); conditions: cited from earlier work
[11] = system: osteoblast enriched bone cell cultures; conditions: relative to TGFβ-1; cited from earlier work
[12] = Homo sapiens, MG-63, 24 h, read-out: Fold Ind.

For `CCCCN(C)C(=O)CCCCCCCCCC[C@@H]1Cc2cc(O)ccc2[C@H]2CC[C@]3(C)[C@@H](O)CC[C@H]3[C@H]12` [ICI], which CAT activity (TGFβ-3 promoter [1]; 10^-5 M) is on record?
Its CAT activity is 6.5.

What about the CAT activity (TGFβ-3 promoter [1]; 10^-6 M) of the same molecule?
Its CAT activity is 15.2.

And the CAT activity (TGFβ-3 promoter [1]; 10^-7 M)?
The CAT activity was 10.9.

And the CAT activity (TGFβ-3 promoter [1]; 10^-8 M)?
The CAT activity was 0.88.

And the CAT activity (TGFβ-3 promoter [1]; 10^-9 M)?
The CAT activity was 0.89.

What about the EC50 (TGFβ-3 promoter [1]; Homo sapiens, MG-63, 24 h, read-out: ED50) of the same molecule?
Its EC50 is 100 nM.

And the “TGFβ-3 promoter activation (in words)” value (TGFβ-3 promoter [1]; MG63 cells)?
The value was “much less active at high concentrations (10^-5 M)”.

Which results are given for `O=C(c1ccc(O)cc1)c1sc2ccccc2c1-c1ccccc1` [LY81099, p-hydroxyphenyl 3-phenylbenzo[B]thien-2-yl ketone]?
in vivo uterotropic activity (in words) (uterotropic activity): uterotropic; reporter gene expression (TGFβ-3 promoter [2]; 10^-5 M): 2.3; reporter gene expression (TGFβ-3 promoter [2]; 10^-6 M): 0.9; reporter gene expression (TGFβ-3 promoter [2]; 10^-7 M): 0.7; reporter gene expression (TGFβ-3 promoter [2]; 10^-8 M): 0.5; reporter gene expression (TGFβ-3 promoter [2]; 10^-9 M): 0.6

With `O=C(c1ccc(O)cc1)c1sc2ccc(O)cc2c1-c1ccccc1` [LY112676, (p-hydroxyphenyl) 5-hydroxy-3-phenylbenzo[B]thien-2-yl ketone] as the molecule, how does the “in vivo uterotropic activity (in words)” value (uterotropic activity) read?
The value was “uterotropic”.

What about the reporter gene expression (TGFβ-3 promoter [2]; 10^-5 M) of the same molecule?
The reporter gene expression was 3.8.

What about the reporter gene expression (TGFβ-3 promoter [2]; 10^-6 M) of the same molecule?
The reporter gene expression was 1.7.

What about the reporter gene expression (TGFβ-3 promoter [2]; 10^-7 M) of the same molecule?
The reporter gene expression was 0.5.

And the reporter gene expression (TGFβ-3 promoter [2]; 10^-8 M)?
The reporter gene expression was 0.6.

And the reporter gene expression (TGFβ-3 promoter [2]; 10^-9 M)?
Its reporter gene expression is 0.6.

Which “in vivo uterotropic activity (in words)” value (uterotropic activity) does the source give for `O=C(c1ccc(OCCN2CCCC2)cc1)c1c(-c2ccc(O)cc2)sc2ccccc12` [LY113526, 2-(p-hydroxyphenyl)benzo[B]thien-3-YL p-[2-(1-pyrrolidinyl)ethoxy]phenyl ketone] here?
Its value is “anti-uterotropic”.

What about the reporter gene expression (TGFβ-3 promoter [2]; 10^-5 M) of the same molecule?
Its reporter gene expression is 2.1.

What about the reporter gene expression (TGFβ-3 promoter [2]; 10^-6 M) of the same molecule?
The reporter gene expression was 2.0.

And the reporter gene expression (TGFβ-3 promoter [2]; 10^-7 M)?
Its reporter gene expression is 0.6.

What about the reporter gene expression (TGFβ-3 promoter [2]; 10^-8 M) of the same molecule?
The reporter gene expression was 0.7.

And the reporter gene expression (TGFβ-3 promoter [2]; 10^-9 M)?
Its reporter gene expression is 0.7.

With `COc1ccc(C2=C(C(=O)c3ccc(OCCN4CCCC4)cc3)c3ccccc3CC2)cc1` [LY133314, [3,4-dihydro-2-(4-methoxyphenyl)-1-naphthanlenyl][4-[2-(1-pyrrolidinyl)ethoxy]phenyl]methanone, methanesulfonic acid salt] as the molecule, how does the “in vivo uterotropic activity (in words)” value (uterotropic activity) read?
The value was “uterotropic”.

And the reporter gene expression (TGFβ-3 promoter [2]; 10^-5 M)?
Its reporter gene expression is 1.0.

And the reporter gene expression (TGFβ-3 promoter [2]; 10^-6 M)?
Its reporter gene expression is 6.6.

And the reporter gene expression (TGFβ-3 promoter [2]; 10^-7 M)?
Its reporter gene expression is 3.1.

And the reporter gene expression (TGFβ-3 promoter [2]; 10^-8 M)?
The reporter gene expression was 0.7.

What about the reporter gene expression (TGFβ-3 promoter [2]; 10^-9 M) of the same molecule?
The reporter gene expression was 0.7.

For `O=C(c1ccc(OCCN2CCCCCC2)cc1)c1c(-c2ccc(O)cc2)sc2cc(O)ccc12` [LY139482, [4-[2-(hexahydro-1H-azepin-1-yl)ethoxy]phenyl][6-hydroxy-2-(4-hydroxyphenyl)benzo[B]thien-3-yl]methanone], which “in vivo uterotropic activity (in words)” value (uterotropic activity) is on record?
The value was “anti-uterotropic”.

What about the reporter gene expression (TGFβ-3 promoter [2]; 10^-5 M) of the same molecule?
Its reporter gene expression is 2.0.

What about the reporter gene expression (TGFβ-3 promoter [2]; 10^-6 M) of the same molecule?
The reporter gene expression was 2.5.

And the reporter gene expression (TGFβ-3 promoter [2]; 10^-7 M)?
The reporter gene expression was 2.7.

What about the reporter gene expression (TGFβ-3 promoter [2]; 10^-8 M) of the same molecule?
Its reporter gene expression is 2.5.

And the reporter gene expression (TGFβ-3 promoter [2]; 10^-9 M)?
The reporter gene expression was 0.8.

What does the source list for `CC(C)(C)C(=O)Oc1ccc(-c2sc3cc(OC(=O)C(C)(C)C)ccc3c2C(=O)c2ccc(OCCN3CCCCC3)cc2)cc1` [LY177366, [6-(2,2-dimethyl-1-oxopropoxy)-2-[4-(2,2-dimethyl-1-oxopropoxy)phenyl]benzo[B]thien-3-yl][4-[2-1-piperidinyl)ethoxy]phenyl]methanone hydrochloride]?
in vivo uterotropic activity (in words) (uterotropic activity): anti-uterotropic; reporter gene expression (TGFβ-3 promoter [2]; 10^-5 M): 6.1; reporter gene expression (TGFβ-3 promoter [2]; 10^-6 M): 7.9; reporter gene expression (TGFβ-3 promoter [2]; 10^-7 M): 10.2; reporter gene expression (TGFβ-3 promoter [2]; 10^-8 M): 7.9; reporter gene expression (TGFβ-3 promoter [2]; 10^-9 M): 1.1; induction of reporter gene expression (in words) (TGFβ-3 promoter [2]): most potent inducer

For `CC/C(=C(\c1ccc(O)cc1)c1ccc(OCCN(C)C)cc1)c1ccccc1` [hydroxytamixofen], which “binding of estrogen receptor complex to estrogen responsive elements (in words)” value [3] is on record?
Its value is “bind in vitro to DNA binding domains called estrogen responsive elements”.

With `O=C(c1ccc(OCCN2CCCCC2)cc1)c1c(-c2ccc(O)cc2)sc2cc(O)ccc12` [raloxifene] as the molecule, how does the “ED50 (in words)” value (TGFβ-3 promoter [1]; MG63 cells) read?
The value was “nanomolar concentrations”.

For `CC/C(=C(\c1ccccc1)c1ccc(OCCN(C)C)cc1)c1ccccc1` [tamoxifen], which “bone density (in words)” value [4] is on record?
The value was “appear to be restricted to the lumbar spine, with bone loss being reported in the radius in some breast cancer patients”.

And the “bone density (in words)” value ([4]; listed as Tamoxifen)?
Its value is “increase bone density in breast cancer patients”.

What about the “serum cholesterol (in words)” value ([4]; healthy women and women with breast cancer) of the same molecule?
Its value is “reduce the growth the serum cholesterol”.

And the “growth of breast tumors (in words)” value ([4]; human, in vivo)?
Its value is “reduce the growth of breast tumors”.

What about the “serum concentration of LDLs (in words)” value ([4]; human, in vivo) of the same molecule?
The value was “reduce serum concentration of LDLs”.

What about the “weight gain (in words)” value ([4]; post-menopausal women) of the same molecule?
Its value is “contribute to weight gain”.

What about the fold induction at 0.1 µM (TGFβ-1 promoter; [12]) of the same molecule?
The fold induction at 0.1 µM was 1.1.

And the “Act. (relative CAT activity)” value (TGFβ-1 promoter; TGFβ-1 promoter, 10 μl of 10^-4 M in 10 ml medium, 24 h, control […])?
The value was 6.9.

What about the fold induction at 0.1 µM (TGFβ-3 promoter [5]; [12]) of the same molecule?
The fold induction at 0.1 µM was 2.6.

What about the “Act. (relative CAT activity)” value (TGFβ-3 promoter [5]; TGFβ-3 promoter, 10 μl of 10^-4 M in 10 ml medium, 24 h, control 0.7) of the same molecule?
Its value is 1.9.

And the “TGFβ-2 mRNA expression (in words)” value (TGFβ-2 mRNA)?
Its value is “did not exhibit the same effect”.

And the fold induction at 0.1 µM (TGFβ-2 promoter; [12])?
The fold induction at 0.1 µM was 2.6.

And the “Act. (relative CAT activity)” value (TGFβ-2 promoter; TGFβ-2 promoter, 10 μl of 10^-4 M in 10 ml medium, 24 h, control 0.8)?
Its value is 2.0.

What about the “induction of extracellular TGFβ-1 (in words)” value (TGFβ-1) of the same molecule?
The value was “correlated with induction of extracellular TGFβ-1”.

What about the CAT activity (TGFβ-3 promoter [1]; 10^-5 M) of the same molecule?
The CAT activity was 13.5.

What about the CAT activity (TGFβ-3 promoter [1]; 10^-6 M) of the same molecule?
The CAT activity was 2.9.

What about the CAT activity (TGFβ-3 promoter [1]; 10^-7 M) of the same molecule?
Its CAT activity is 0.98.

What about the CAT activity (TGFβ-3 promoter [1]; 10^-8 M) of the same molecule?
The CAT activity was 1.2.

And the CAT activity (TGFβ-3 promoter [1]; 10^-9 M)?
Its CAT activity is 0.91.

What about the “TGFβ-3 promoter activation (in words)” value (TGFβ-3 promoter [1]; MG63 cells) of the same molecule?
The value was “activates the TGFβ-3 promoter only at high levels (i.e., greater than micromolar)”.

What about the “TGFβ secretion (in words)” value [6] of the same molecule?
The value was “induce human fetal fibroblasts to secrete TGFβ”.

Which “TGFβ secretion (in words)” value [6] does the source give for `CN(C)CCOc1ccc(/C(=C(/CCCl)c2ccccc2)c2ccccc2)cc1` [toremifene] here?
The value was “induce human fetal fibroblasts to secrete TGFβ”.

With TGFβ as the molecule, how does the “bone formation / osteoclast effects (in words)” value [7] read?
Its value is “stimulate osteoblastic bone formation and to inhibit osteoclast formation and osteoclast activities”.

And the “cell growth, biosynthesis and chemotaxis (in words)” value [8]?
The value was “inhibits the growth of mesenchymal cells and epithelial cells; also recorded: induces biosynthesis of proteoglycans, fibronectins and plasminogen activator; also recorded: chemotactic for fibroblasts, macrophages and smooth muscle cells”.

And the “mitogenic effect (in words)” value [9]?
The value was “mitogenic”.

What about the “cell division (in words)” value [10] of the same molecule?
The value was “repressed division”.

For “TGFβ-3: isoform of transforming growth factor β”, which “mitogenesis, collagen synthesis and alkaline phosphatase activity (in words)” value [11] is on record?
Its value is “three to five fold higher rate than TGFβ-1”.

Which “in vivo uterotropic activity (in words)” value (uterotropic activity) does the source give for “p-hydroxyphenyl3-(-hydroxyphenyl)benzo[B]thien-2-yl ketone [LY98005]” here?
Its value is “inert in vivo”.

And the reporter gene expression (TGFβ-3 promoter [2]; 10^-5 M)?
Its reporter gene expression is 0.5.

What about the reporter gene expression (TGFβ-3 promoter [2]; 10^-6 M) of the same molecule?
Its reporter gene expression is 0.4.

And the reporter gene expression (TGFβ-3 promoter [2]; 10^-7 M)?
The reporter gene expression was 0.5.

And the reporter gene expression (TGFβ-3 promoter [2]; 10^-8 M)?
Its reporter gene expression is 0.5.

And the reporter gene expression (TGFβ-3 promoter [2]; 10^-9 M)?
The reporter gene expression was 0.4.

And the “induction of reporter gene expression (in words)” value (TGFβ-3 promoter [2])?
The value was “no induction”.
